The assay has as its target T1, Cbl-b (Homo sapiens, UniProt Q13191).
T1 construct: Cbl-b-HiBit KI Jurkat Cells were purchased from Promega; host or cells: Cbl-b-HiBiT knock-in Jurkat cells
Description: Cbl-b Degradation Method B (Nano-Glo HiBiT lytic detection). Format: cell-based. The conditions noted are these: Cbl-b-HiBit KI Jurkat Cells, incubated at least 6-24 hours; for DC50: half maximal degradation, read-out: Cbl-b Degredation Method B IC50; for Dmax: maximum degradation observed, read-out: Cbl-b Degredation Method B Dmax (%). The gist of the method:
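Cbl-b-HiBiT knock-in Jurkat cells (20,000/well) were treated after ~24 h plating with an 11-point 1:3 series for 6-24 h at 37° C. Remaining Cbl-b measured by Nano-Glo HiBiT lytic luminescence. DC50 and Dmax expressed as % of control.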
(With HiBiT, luminescence reflects the tagged protein that the partner subunit can reach.)

A value given as a limit tells only on which side of the number the result lay.

We go through 14 compounds from patent publication US20260184710A1, “CASITAS B-LINEAGE LYMPHOMA PROTOONCOGENE B (CBL-B) DEGRADING COMPOUNDS AND ASSOCIATED METHODS OF USE” (Arvinas Operations, Inc., priority 2022, published 2026).

The Dmax is the largest share of the target that was removed.

T1 sequence (Q13191 whole entry): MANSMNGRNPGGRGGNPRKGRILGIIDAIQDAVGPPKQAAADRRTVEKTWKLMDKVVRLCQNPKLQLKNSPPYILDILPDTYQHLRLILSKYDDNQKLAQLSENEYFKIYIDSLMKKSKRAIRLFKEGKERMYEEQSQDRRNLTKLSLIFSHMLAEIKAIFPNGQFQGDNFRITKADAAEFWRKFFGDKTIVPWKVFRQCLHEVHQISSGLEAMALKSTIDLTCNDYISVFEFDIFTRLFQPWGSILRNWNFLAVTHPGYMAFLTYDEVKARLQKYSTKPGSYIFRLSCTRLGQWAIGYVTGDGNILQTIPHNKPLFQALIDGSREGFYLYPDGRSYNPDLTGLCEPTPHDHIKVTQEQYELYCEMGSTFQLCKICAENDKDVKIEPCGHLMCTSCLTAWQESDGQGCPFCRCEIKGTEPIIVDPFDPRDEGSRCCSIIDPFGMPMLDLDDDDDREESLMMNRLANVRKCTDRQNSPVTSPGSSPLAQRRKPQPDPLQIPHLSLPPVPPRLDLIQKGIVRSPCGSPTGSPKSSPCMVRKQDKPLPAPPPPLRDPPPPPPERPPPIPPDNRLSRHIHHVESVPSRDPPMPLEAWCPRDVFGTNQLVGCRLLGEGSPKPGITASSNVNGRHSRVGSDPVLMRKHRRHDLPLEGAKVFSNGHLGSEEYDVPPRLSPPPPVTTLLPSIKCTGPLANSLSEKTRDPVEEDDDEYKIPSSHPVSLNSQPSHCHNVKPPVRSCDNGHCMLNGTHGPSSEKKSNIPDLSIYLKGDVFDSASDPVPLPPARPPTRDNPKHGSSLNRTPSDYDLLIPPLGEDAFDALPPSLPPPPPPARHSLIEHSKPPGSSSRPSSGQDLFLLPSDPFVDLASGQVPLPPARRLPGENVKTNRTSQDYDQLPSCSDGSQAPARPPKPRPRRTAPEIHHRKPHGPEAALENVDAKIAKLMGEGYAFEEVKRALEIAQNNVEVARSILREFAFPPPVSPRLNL

On to `Cn1cnnc1C[C@]1(c2cccc(N3Cc4c(cc(CN5CCN(C[C@H]6CC[C@H](OC7CCN(c8ccc(C9CCC(=O)NC9=O)cc8)CC7)CC6)CC5)cc4C(F)(F)F)C3=O)c2)C[C@H](C#N)C1` (stereo partly shown) [Example 206, (1r,3r)-3-[(4-methyl-4H-1,2,4-triazol-3-yl)methyl]-3-(3-{1-oxo-6-[(4-{[(1r,4r)-4-({1-[4-(2,6-dioxopiperidin-3-yl)phenyl]piperidin-4-yl}oxy)cyclohexyl]methyl}piperazin-1-yl)methyl]-4-(trifluoromethyl)-2,3-dihydro-1H-isoindol-2-yl}phenyl)cyclobutane-1-carbonitrile], for which the DC50 was above 500 nM.
For the compound `CC1c2nc(N3CCC(O[C@H]4CC[C@H](CN5[C@H](C)CN(Cc6cc7c(c(C(F)(F)F)c6)CN(c6cccc(C8(Cc9nncn9C)COC8)c6)C7=O)C[C@H]5C)CC4)CC3)ccc2C(=O)N1C1CCC(=O)NC1=O` (stereo partly drawn) [Example 250, 3-[7-methyl-5-oxo-2-(4-{[(1r*,4r*)-4-{[(2R,6R)-2,6-dimethyl-4-{[2-(3-{3-[(4-methyl-4H-1,2,4-triazol-3-yl)methyl]oxetan-3-yl}phenyl)-3-oxo-7-(trifluoromethyl)-2,3-dihydro-1H-isoindol-5-yl]methyl}piperazin-1-yl]methyl}cyclohexyl]oxy}piperidin-1-yl)-5H,6H,7H-pyrrolo[3,4-b]pyridin-6-yl]piperidine-2,6-dione], the DC50 was below 5 nM and the Dmax was in the range of 35 to 70%.
On to `C[C@@H]1c2nc(N3CCC(O[C@H]4CC[C@H](CN5CCN(Cc6cc7c(c(C(F)(F)F)c6)CN(c6cccc(C8(Cc9nncn9C)CC(C#N)C8)c6)C7=O)CC5(C)C)CC4)CC3)ccc2C(=O)N1C1CCC(=O)NC1=O` (single isomer, unassigned) [Example 313, (1r***,3r***)-3-(3-{6-[(3,3-dimethyl-4-{[(1r**,4r**)-4-({1-[(7R*)-6-(2,6-dioxopiperidin-3-yl)-7-methyl-5-oxo-5H,6H,7H-pyrrolo[3,4-b]pyridin-2-yl]piperidin-4-yl}oxy)cyclohexyl]methyl}piperazin-1-yl)methyl]-1-oxo-4-(trifluoromethyl)-2,3-dihydro-1H-isoindol-2-yl}phenyl)-3-[(4-methyl-4H-1,2,4-triazol-3-yl)methyl]cyclobutane-1-carbonitrile], for which the DC50 was above 500 nM.
Take `COc1cc(N2CCN(Cc3cc4c(c(C(F)(F)F)c3)CN(c3cccc(C5(Cc6nncn6C)COC5)c3)C4=O)CC2)cc2c1C(=O)N(C1CCC(=O)NC1=O)C2=O` (stereo not shown) [Example 52, 2-(2,6-dioxopiperidin-3-yl)-4-methoxy-6-(4-{[2-(3-{3-[(4-methyl-4H-1,2,4-triazol-3-yl)methyl]oxetan-3-yl}phenyl)-3-oxo-7-(trifluoromethyl)-2,3-dihydro-1H-isoindol-5-yl]methyl}piperazin-1-yl)-2,3-dihydro-1H-isoindole-1,3-dione]: the DC50 is above 500 nM.
In the case of `Cn1cnnc1C[C@]1(c2cccc(-n3cc4c(C(F)(F)F)cc(N5CC6(CCN(CC7CCN(c8ccc9c(c8Cl)CN(C8CCC(=O)NC8=O)C9=O)CC7)CC6)C5)cc4n3)c2)C[C@H](C#N)C1` (stereo partly shown) [Example 262, (1r,3r)-3-(3-{6-[7-({1-[4-chloro-2-(2,6-dioxopiperidin-3-yl)-1-oxo-2,3-dihydro-1H-isoindol-5-yl]piperidin-4-yl}methyl)-2,7-diazaspiro[3.5]nonan-2-yl]-4-(trifluoromethyl)-2H-indazol-2-yl}phenyl)-3-[(4-methyl-4H-1,2,4-triazol-3-yl)methyl]cyclobutane-1-carbonitrile], the DC50 is 5 to 50 nM and the Dmax was below 35%.
As to `COc1ccc(N2CCC(CN3CCN(Cc4cc5c(c(C(F)(F)F)c4)CN(c4cccc(C6(Cc7nncn7C)COC6)c4)C5=O)CC3)CC2)cc1C(=O)NC1CCC(=O)NC1=O` (stereo not shown) [Example 56, N-(2,6-dioxopiperidin-3-yl)-2-methoxy-5-{4-[(4-{[2-(3-{3-[(4-methyl-4H-1,2,4-triazol-3-yl)methyl]oxetan-3-yl}phenyl)-3-oxo-7-(trifluoromethyl)-2,3-dihydro-1H-isoindol-5-yl]methyl}piperazin-1-yl)methyl]piperidin-1-yl}benzamide], the DC50 is above 500 nM.
`COc1c(N2CCC(C(=O)N3CCC4(CC3)CN(c3cc5c(c(C(F)(F)F)c3)CN(c3cccc(C6(Cc7nncn7C)COC6)c3)C5=O)C4)CC2)ccc2c1CN(C1CCC(=O)NC1=O)C2=O` (stereo not shown) [Example 265, 3-[4-methoxy-5-(4-{2-[2-(3-{3-[(4-methyl-4H-1,2,4-triazol-3-yl)methyl]oxetan-3-yl}phenyl)-3-oxo-7-(trifluoromethyl)-2,3-dihydro-1H-isoindol-5-yl]-2,7-diazaspiro[3.5]nonane-7-carbonyl}piperidin-1-yl)-1-oxo-2,3-dihydro-1H-isoindol-2-yl]piperidine-2,6-dione]: the DC50 lay in the range of 5 to 50 nM and the Dmax is below 35%.
On the same counts, the results for `Cn1cnnc1CC1(c2cccc(N3Cc4c(cc(CN5CC(C6CN(c7ccc8c(c7)C(=O)N(C7CCC(=O)NC7=O)C8=O)C6)C5)cc4C(F)(F)F)C3=O)c2)COC1` (stereo not shown) [Example 48, 2-(2,6-dioxopiperidin-3-yl)-5-(1′-{[2-(3-{3-[(4-methyl-4H-1,2,4-triazol-3-yl)methyl]oxetan-3-yl}phenyl)-3-oxo-7-(trifluoromethyl)-2,3-dihydro-1H-isoindol-5-yl]methyl}-[3,3′-biazetidin]-1-yl)-2,3-dihydro-1H-isoindole-1,3-dione] are 50 to 500 nM and 35 to 70%.
Turning to `Cn1cnnc1CC1(c2cccc(N3Cc4c(cc(CN5CCC[C@H](CN6CCN(C[C@H]7CC[C@@H](OC8CCN(c9ccc%10c(c9F)CN(C9CCC(=O)NC9=O)C%10=O)CC8)CC7)CC6(C)C)C5)cc4C(F)(F)F)C3=O)c2)CC1` (stereo partly drawn) [Example 264, 3-[4-fluoro-1-oxo-5-(4-{[(1r,4r)-4-[(3,3-dimethyl-4-{[(3S)-1-{[2-(3-{1-[(4-methyl-4H-1,2,4-triazol-3-yl)methyl]cyclopropyl}phenyl)-3-oxo-7-(trifluoromethyl)-2,3-dihydro-1H-isoindol-5-yl]methyl}piperidin-3-yl]methyl}piperazin-1-yl)methyl]cyclohexyl]oxy}piperidin-1-yl)-2,3-dihydro-1H-isoindol-2-yl]piperidine-2,6-dione], the DC50 is below 5 nM and the Dmax is above 70%.
As for `CC(C)n1c(=O)n(C2CCC(=O)NC2=O)c2cccc(N3CCC(O[C@H]4CC[C@H](CN5CCN(Cc6cc7c(c(C(F)(F)F)c6)CN(c6cccc([C@]8(Cc9nncn9C)C[C@@H](C#N)C8)c6)C7=O)C(C)(C)C5)CC4)CC3)c21` (stereo partly shown) [Example 275, (1r,3r)-3-(3-{6-[(2,2-dimethyl-4-{[(1r,4r)-4-({1-[1-(2,6-dioxopiperidin-3-yl)-2-oxo-3-(propan-2-yl)-2,3-dihydro-1H-1,3-benzodiazol-4-yl]piperidin-4-yl}oxy)cyclohexyl]methyl}piperazin-1-yl)methyl]-1-oxo-4-(trifluoromethyl)-2,3-dihydro-1H-isoindol-2-yl}phenyl)-3-[(4-methyl-4H-1,2,4-triazol-3-yl)methyl]cyclobutane-1-carbonitrile], the DC50 fell in the range of 5 to 50 nM and the Dmax was in the range of 35 to 70%.
On the same counts, the results for `C[C@H]1CN(CC2CCC(OC3CCN(c4ccc5c(c4F)CN(C4CCC(=O)NC4=O)C5=O)CC3)CC2)[C@@H](C)CN1Cc1cc2c(c(C(F)(F)F)c1)CN(c1cccc(C3(Cc4nncn4C)COC3)c1)C2=O` (stereo partly drawn) [Example 242, 3-[4-fluoro-1-oxo-5-(4-{[(1rs,4rs)-4-{[(2S,5S)-2,5-dimethyl-4-{[2-(3-{3-[(4-methyl-4H-1,2,4-triazol-3-yl)methyl]oxetan-3-yl}phenyl)-3-oxo-7-(trifluoromethyl)-2,3-dihydro-1H-isoindol-5-yl]methyl}piperazin-1-yl]methyl}cyclohexyl]oxy}piperidin-1-yl)-2,3-dihydro-1H-isoindol-2-yl]piperidine-2,6-dione] are below 5 nM and above 70%.
`Cn1cnnc1CC1(c2cccc(N3Cc4c(cc(CNC5CC(Oc6ccc7c(c6)C(=O)N(C6CCC(=O)NC6=O)C7=O)C5)cc4C(F)(F)F)C3=O)c2)COC1` (stereo not shown) [Example 37, 2-(2,6-dioxopiperidin-3-yl)-5-[3-({[2-(3-{3-[(4-methyl-4H-1,2,4-triazol-3-yl)methyl]oxetan-3-yl}phenyl)-3-oxo-7-(trifluoromethyl)-2,3-dihydro-1H-isoindol-5-yl]methyl}amino)cyclobutoxy]-2,3-dihydro-1H-isoindole-1,3-dione]: the DC50 is above 500 nM.
Turning to `Cn1cnnc1CC1(c2cccc(N3Cc4c(cc(CN5CCC[C@H](CN6CCN(C[C@H]7CC[C@@H](OC8CCN(c9ccc%10c(c9F)CN(C9CCC(=O)NC9=O)C%10=O)CC8)CC7)CC6(C)C)C5)cc4C(F)(F)F)C3=O)c2)CCC1` (stereo partly drawn) [Example 270, 3-[4-fluoro-1-oxo-5-(4-{[(1r,4r)-4-[(3,3-dimethyl-4-{[(3S)-1-{[2-(3-{1-[(4-methyl-4H-1,2,4-triazol-3-yl)methyl]cyclobutyl}phenyl)-3-oxo-7-(trifluoromethyl)-2,3-dihydro-1H-isoindol-5-yl]methyl}piperidin-3-yl]methyl}piperazin-1-yl)methyl]cyclohexyl]oxy}piperidin-1-yl)-2,3-dihydro-1H-isoindol-2-yl]piperidine-2,6-dione], the DC50 was below 5 nM and the Dmax is above 70%.
Take `Cn1cnnc1CC1(c2cccc(N3Cc4c(cc(CN5CCC(Cn6cccc(CN7CCC(=O)NC7=O)c6=O)CC5)cc4C(F)(F)F)C3=O)c2)COC1` [Example 55, 1-({1-[(1-{[2-(3-{3-[(4-methyl-4H-1,2,4-triazol-3-yl)methyl]oxetan-3-yl}phenyl)-3-oxo-7-(trifluoromethyl)-2,3-dihydro-1H-isoindol-5-yl]methyl}piperidin-4-yl)methyl]-2-oxo-1,2-dihydropyridin-3-yl}methyl)-1,3-diazinane-2,4-dione]: the DC50 was above 500 nM.
